Publication PMC6510361 (Medicine and Pharmacy Reports, 2019)

How the values were obtained:
[1] = system: CYP2D6; conditions: sertraline, fluvoxamine: ref 17; bupropion in vitro ref 12, in vivo ref 13; cited from earlier work
[2] = system: CYP1A2; conditions: cited from earlier work
[3] = system: CYP2C9; conditions: cited from earlier work
[4] = system: rat pooled liver microsomes
[5] = cited from earlier work

Row | Compound | CYP2D6 inhibition [1] | CYP1A2 inhibition [2] | CYP2C9 inhibition [3] | decrease of carvedilol metabolisation rate [4] | inhibitory potency compared with citalopram ([4]; based on metabolization rate and AUC0–30, citalopram data ref 20) | beta-blocking potency relative to carvedilol [5]
1 | COCCCC/C(=N\OCCN)c1ccc(C(F)(F)F)cc1 [Fluvoxamine, fluvoxamine] | weak inhibitor | strong inhibitor | moderate inhibitor | 25.19% | stronger inhibitors than citalopram | 
2 | CN[C@H]1CC[C@@H](c2ccc(Cl)c(Cl)c2)c2ccccc21 [Sertraline, sertraline] | moderate inhibitor | weak inhibitor | weak inhibitor | 63.63% |  | 
3 | COc1cc(O)ccc1OCCNCC(O)COc1cccc2[nH]c3ccccc3c12 (centres unmarked) [4′-hydroxyphenyl carvedilol] |  |  |  |  |  | approximately 13 times
4 | CC(NC(C)(C)C)C(=O)c1cccc(Cl)c1 (centres unmarked) [Bupropion, bupropion] | inhibits |  |  |  |  | 
